In US12187717B2, “Compound and use thereof in treating autoimmune diseases” (PARENCHYMA BIOTECH INC., priority 2022, dated 2025):

Tested on: graft-versus-host disease
Experiment: Graft-versus-host disease model (B6->BDF1)
Assay type: in vivo, BDF1 mice
Details: 10 mg/kg oral daily, 3rd to 14th days
Procedure: The spleen of C57BL/6 mice (8 to 12 weeks old, female, 18±3 g) was excised, pulverized by adding RPMI medium, and then passed through a 40 μm cell strainer (BD Falcon), thereby obtaining a single cell suspension. The single cell suspension was centrifuged (1200 rpm, 5 minutes), and after discarding the supematant, 1 ml of ACK (ammonium chloride/potassium bicarbonate) lysis buffer (0.15 M NH4Cl, 1 mM KHCO3, 0.1 mM Na2 EDTA) was added, followed by stirring for 1 minute and then washing the same with RPMI medium. After centrifugation, the cell suspension was reacted on mouse CD90.2 microbeads (Miltenyi Biotec, Cat No. 130-121-278) at 4° C. for 20 minutes. After complementation of the reaction, the cell suspension was centrifuged, washed with 10 ml of autoMACS® Running Buffer (Miltenyi Biotec, Cat No. 130-091-221), and then resuspended with 3 ml of autoMACS® Running Buffer. Then, CD90.2^+ T cells were obtained from the cell suspension using Auto MACS pro (Miltenyi Biotec) (positive selection). […]
The graft-versus-host disease severity index was evaluated at an interval of 3 to 4 days by visual observation in a severity index system that was classified into a total of 10 points with 0 to 2 points for each item of weight reduction, hair condition, posture, activity and skin change.

O=C(Cc1c[nH]c2ccc(Cl)cc12)Nc1nc2ccc(N3CCOCC3)cc2s1 [Compound 6, 2-(5-chloro-1H-indol-3-yl)-N-(6-morpholinobenzo[d]thiazol-2-yl)acetamide]
colon tissue inflammatory pathology index: significantly decreased
severity index of graft-versus-host disease (total of 10 points, solvent control 8±1): 2.2±1.2
